US20170298051A1, “ACTIVATOR OF ADIPONECTIN RECEPTOR” (THE UNIVERSITY OF TOKYO, priority 2013, published 2017)

Columns and labels:
AdipoR1 [1] = target: T1, AdipoR1 (Homo sapiens, UniProt Q96A54); assay: Measurement of AMPK phosphorylation ability (Assay 1), HEK 293T cells, Western blotting; assay type: cell-based; parameters: HEK 293T cells (ATCC; CRL-3216, medium; host or cells: HEK 293T; details: 10 minutes
T1 sequence (Q96A54 1-375): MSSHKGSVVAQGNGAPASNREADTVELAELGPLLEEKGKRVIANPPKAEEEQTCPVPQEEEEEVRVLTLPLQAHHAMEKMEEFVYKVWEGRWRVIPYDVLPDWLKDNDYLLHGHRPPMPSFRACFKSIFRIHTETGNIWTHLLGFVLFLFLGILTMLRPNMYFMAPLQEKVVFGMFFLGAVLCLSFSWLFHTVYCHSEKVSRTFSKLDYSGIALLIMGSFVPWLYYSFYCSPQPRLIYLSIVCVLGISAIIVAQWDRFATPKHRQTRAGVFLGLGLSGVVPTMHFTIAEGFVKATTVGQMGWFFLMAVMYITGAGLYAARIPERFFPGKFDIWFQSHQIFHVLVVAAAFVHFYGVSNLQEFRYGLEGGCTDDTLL
Description: (§1) The AMPK phosphorylation ability of the respective compounds according to the present invention was measured by using differentiated C2C12 cells or HEK 293T cells.
HEK 293T cells (ATCC; CRL-3216, medium; DMEM, Fetal Bovine Serum (FBS)) were cultured in a 12- or 24-well plate until they reached 100% confluency (37° C., 5% CO2).
After starvation, a test compound listed in Tables 10 and 11 (concentration: 25 μM, 50 μM) was added thereto, and after 10 minutes, the medium was discarded and the plate was frozen with liquid nitrogen.
(§2) To the 12- or 24-well cell plate which had been frozen was added 100 or 150 μL of Cell lysis buffer pH 7.4 (50 mM HEPES (pH 7.4), 2 mM sodium orthovanadate, 10 mM sodium pyrophosphate, 10 mM NaF, 2 mM EDTA, 2 mM EGTA, 0.1% (v/v) NP-40, 0.2 mM PMSF), and the cells were scraped off with a cell scraper, suspended and transferred into a micro centrifugal tube. And then, the cells were ultrasonically crushed (1 second×3 times) with a sonicator. Centrifugation was performed at 4° C. at 15,000 rpm for 15 minutes, and the supernatant was recovered into a new tube.
(§3) To 100 μL of the supernatant was added 25 μL of 5× sample buffer (280 mM Tris-HCl (pH 6.9), 40% glycerol, 10% (3-mercaptoethanol, 13% SDS, a small amount of bromophenol blue) and mixed together. The rest of the supernatant was used for protein quantification, and the protein concentrations were uniformed by adding 1× sample buffer depending on the concentration of each sample.
(§4) An electrophoresis chamber was filled with 1× SDS buffer (25 mM Tris-HCl, 250 mM glycine, 0.1% SDS), and the sample was applied to a well of polyacrylamide gel. Electrophoresis was performed until the bromophenol blue in the sample reached to the bottom of the gel.
(§5) A filter paper was soaked in 1× Transfer buffer sufficiently, above which the PVDF membrane and the gel after electrophoresis were stacked in this order, and thereabove a filter paper which had been soaked in 1× Transfer buffer sufficiently was further stacked, from which an air was removed and the resultant was set in semi-dry type transfer apparatus and transferred (7V, 35 minutes).
(§6) An unnecessary portion of the blotted membrane was cutoff, and the rest was immediately soaked in blocking buffer (5% skimmed milk in Rinse buffer), and shaken at room temperature at 40 rpm for 3 hours.
(§7) After blocking, the membrane was transferred into Rinse buffer, and washed at room temperature for 10 minutes while shaking. The membrane was soaked in a primary antibody solution (AMPK alpha Antibody (Cell signaling; #2532) 1/1,000 in Rinse buffer, Phospho-AMPK alpha (Thr172) (40H9) antibody (Cell signaling; #2535) 1/1,000 in Rinse buffer), and shaken at 4° C. at 40 rpm overnight.
(§8) The membrane was soaked in a secondary antibody solution (goat anti-rabbit IgG-HRP Antibody (Santa Cruz; sc-2030) 1/2,000 in Rinse buffer), and shaken at room temperature at 40 rpm for 1 hour.
(§9) After the membrane was washed for 45 minutes in the same way as after the primary antibody reaction, the membrane was soaked in a chemiluminescent reaction solution (ECL Western Blotting Detection Reagents, GE Healthcare) for about 1 minute. An excess of the reaction solution was removed, and then the membranes were arranged on a transparent film and sandwiched with it, with which an X-ray film was exposed in a darkroom (for about several seconds to 60 seconds) to develop the film.
(§10) The X-ray film was scanned to take the image, for which the band was measured by using the image analysis software “Image J” to determine the respective amounts of pAMPK and AMPK.

AdipoR1 [2] = target: T1, AdipoR1; assay: Measurement of AMPK phosphorylation ability (Assay 2), HEK 293T cells with unrelated or AdipoR1 siRNA; assay type: cell-based; parameters: HEK 293T cells (ATCC; CRL-3216, medium; host or cells: HEK 293T
Description: HEK 293T cells (medium; DMEM, 10% FBS) were cultured in a 24-well plate until they reached 60% confluency (37° C., 5% CO2).
First, 1 μL of Lipofectamine RNAiMAX and 50 μL of OPTI-MEM were mixed, and then 5 μM siRNA (sense siRNA sequence: […]tt (SEQ ID NO: 1)) and 50 μL of OPTI-MEM were mixed and the resultants were left to stand at room temperature for 5 minutes. And then, the 1 μL Lipofectamine RNAiMAX/50 μL OPTI-MEM and the 5 μM siRNA/50 μL OPTI-MEM were mixed, and the resultant was left to stand at room temperature for 10 minutes, which was added to the cells.
After 5 minutes, the medium (DMEM, 10% FBS) was replaced, and after starvation on the next day, a test compound listed in Tables 10 and 11 was added thereto. After 10 minutes, the medium was discarded and the plate was frozen with liquid nitrogen.
(§11) The respective amounts of pAMPK and AMPK were determined in the same way as in the above Assay 1.

AdipoR1 [3] = target: T2, AdipoR1 (Mus musculus, UniProt Q91VH1); assay: Measurement of AMPK phosphorylation ability (Assay 1), differentiated C2C12 cells, Western blotting; assay type: cell-based; details: 10 μM, 10 minutes
T2 construct: C2C12 cells (ATCC; CRL-1772, medium; host or cells: differentiated C2C12
T2 sequence (Q91VH1 1-375): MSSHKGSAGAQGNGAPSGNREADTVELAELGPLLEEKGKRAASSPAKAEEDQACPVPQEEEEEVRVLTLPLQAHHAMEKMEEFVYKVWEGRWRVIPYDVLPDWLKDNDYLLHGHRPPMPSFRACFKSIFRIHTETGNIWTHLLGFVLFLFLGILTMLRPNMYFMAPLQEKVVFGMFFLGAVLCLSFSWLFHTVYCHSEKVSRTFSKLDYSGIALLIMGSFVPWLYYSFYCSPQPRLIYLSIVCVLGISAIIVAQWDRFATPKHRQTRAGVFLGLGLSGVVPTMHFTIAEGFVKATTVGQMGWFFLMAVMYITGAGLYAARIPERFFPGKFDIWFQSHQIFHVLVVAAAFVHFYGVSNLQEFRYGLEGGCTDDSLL
Description: as §1
C2C12 cells (ATCC; CRL-1772, medium; DMEM, 10% FBS) were cultured in a 12- or 24-well plate until they reached 100% confluency (37° C., 5% CO2).
The medium was changed to 2.5% Horse Serum (HS) and differentiation was started. The medium (DMEM, 2.5% HS) was replaced every three days.
After starvation, a test compound listed in Table 12 (concentration: 10 μM) was added thereto, and after 10 minutes, the medium was discarded and the plate was frozen with liquid nitrogen.
as §2, §3, §4, §5, §6, §7, §8, §9, §10

AdipoR1 [4] = assay: Measurement of AMPK phosphorylation ability (Assay 2), C2C12 cells with unrelated or AdipoR1 siRNA; assay type: cell-based, Mouse
Description: C2C12 cells (ATCC; CRL-1772, medium; DMEM, 10% Fetal Bovine Serum (FBS)) were cultured in a 12- or 24-well plate until they reached 100% confluency (37° C., 5% CO2). The medium was changed to DMEM, 2.5% Horse Serum (HS) and differentiation was started. The medium (DMEM, 2.5% HS) was replaced two days after the start of differentiation. The medium (DMEM, 2.5% HS) was further replaced two days after that.
On the next day following the replacement of the medium, first, 1 μL of Lipofectamine RNAiMAX and 50 μL of OPTI-MEM were mixed, and then 5 μM siRNA (sense siRNA sequence: […]tt (SEQ ID NO: 1)) and 50 μL of OPTI-MEM were mixed and the resultants were left to stand at room temperature for 5 minutes. And then, the 1 μL Lipofectamine RNAiMAX/50 μL OPTI-MEM and the 5 μM siRNA/50 μL OPTI-MEM were mixed, and the resultant was left to stand at room temperature for 10 minutes, which was added to the cells.
After 5 minutes, the medium (DMEM, 2.5 HS) was replaced, and after starvation on the next day, a test compound listed in Table 12 was added thereto. After 10 minutes, the medium was discarded and the plate was frozen with liquid nitrogen.
as §11

Compound | pAMPK/AMPK (%) (AdipoR1 [1]; 25 μM) | pAMPK/AMPK (%) (AdipoR1 [1]; 50 μM) | pAMPK/AMPK (ratio) siRNA, AdipoR1 siRNA (AdipoR1 [2]) [ratio] | pAMPK/AMPK (ratio) siRNA, unrelated siRNA (AdipoR1 [2]) [ratio] | pAMPK/AMPK (%) (AdipoR1 [3]) | pAMPK/AMPK (ratio) siRNA, AdipoR1 siRNA (AdipoR1 [4]) [ratio] | pAMPK/AMPK (ratio) siRNA, unrelated siRNA (AdipoR1 [4]) [ratio]
CCOc1ccc(OCC(=O)NC2CCN(Cc3ccc(Cl)c(Cl)c3)CC2)cc1 [Compound 38] | 112.70 | 87.54 | 2.43 | 2.67 | – | – | –
CCOc1ccc(OCC(=O)NC2CCN(Cc3cccc(C(F)(F)F)c3)CC2)cc1 [Compound 40] | 80.20 | 91.33 | 2.25 | 2.25 | – | – | –
Cc1ccccc1CN1CCC(NC(=O)COc2ccc(Oc3ccccn3)cc2)CC1 [Compound 46] | 80.93 | 80.11 | 2.74 | 2.58 | – | – | –
CC(c1ccccc1)N1CCC(NC(=O)COc2ccc(Oc3ccccn3)cc2)CC1 (stereo not drawn) [Compound 47] | 80.31 | 80.39 | 2.44 | 2.78 | – | – | –
O=C(COc1ccc(Oc2ccccn2)cc1)NC1CCN(Cc2ccc(F)cc2)CC1 [Compound 48] | 80.04 | 85.28 | 3.16 | 3.42 | – | – | –
CC(C)(C)c1ccc(C(=O)NCCC(=O)N2CCN(Cc3cccc4cccnc34)CC2)cc1 [Compound 53] | 91.44 | 81.80 | 2.04 | 2.26 | – | – | –
CC(C)c1ccc(CN2CCN(C(=O)CCNC(=O)c3ccc([N+](=O)[O-])cc3)CC2)cc1 [Compound 64] | 80.29 | 83.01 | 3.57 | 4.86 | – | – | –
O=C(NCCC(=O)N1CCN(Cc2cccc(OC(F)(F)F)c2)CC1)c1ccc([N+](=O)[O-])cc1 [Compound 69] | 80.04 | 100.79 | 4.03 | 5.28 | – | – | –
O=C(NCCC(=O)N1CCN(Cc2cccc(O)c2)CC1)c1ccc2ccccc2c1 [Compound 70] | 84.71 | 88.96 | 2.46 | 2.43 | – | – | –
COc1cccc(NC(=O)c2ccc(CN3CCN(Cc4ccccc4)CC3)cc2)c1 [No. 103694] | – | – | – | – | 81.05 | 3.34 | 4.67
COc1ccc(CN2CC[C@@]2(C)C(=O)NC2CCN(Cc3ccccc3)CC2)c2ccccc12 [No. 168198] | – | – | – | – | 84.85 | 2.97 | 4.53
COc1ccc(CN2CCN(C(=O)CCNC(=O)c3ccc(C(C)(C)C)cc3)CC2)cc1C [No. 183665] | – | – | – | – | 99.03 | 2.83 | 2.88
COc1ccccc1N1CCN(CCC(=O)Nc2cccc(Cl)c2)CC1 [No. 189474] | – | – | – | – | 88.87 | 1.62 | 2.00
COc1ccccc1N1CCN(CCC(=O)Nc2ccccc2Cl)CC1 [No. 189640] | – | – | – | – | 82.40 | 1.82 | 1.85
